Source: patent publication US6825230B2, “Spiro and dispiro 1,2,4-trixolane antimalarials” (Medicines for Malaria Venture MMV, priority 2002, dated 2004)
In brackets after ≈: the same amount, converted by molar mass.

Columns and labels:
[1] = test system: ANKA strain of P. berghei; experiment: Single dose STI in vivo screen in infected mice; parameters: species or system Plasmodium berghei; conditions: for Survival (days) 10 mg/kg SSV po: single 10 mg/kg po in SSV; for Survival (days) 10 mg/kg SSV po / Survival (days) 10 mg/kg po / Survival (days) 10 mg/kg sc: untreated 6-7 days; for Activity (%) 10 mg/kg SSV po: single 10 mg/kg po in standard suspending vehicle (SSV) on day 1 post-infection; for Survival (days) 10 mg/kg po: single 10 mg/kg po in 3% ethanol and 7% Tween 80; for Activity (%) 10 mg/kg po: single 10 mg/kg po in 3% ethanol and 7% Tween 80 on day 1 post-infection; for Survival (days) 10 mg/kg sc: single 10 mg/kg sc in 3% ethanol and 7% Tween 80; for Activity (%) 10 mg/kg sc: single 10 mg/kg sc in 3% ethanol and 7% Tween 80 on day 1 post-infection
[2] = test system: P. berghei ANKA strain; experiment: Divided 3x10 mg/kg vs single 1x30 mg/kg po dose in infected mice; assay type: in vivo, Plasmodium berghei; conditions: 10 mg/kg po on days 1, 2, 3 post-infection
Procedure: (§1) Moro NMRI male mice (Fu Albino specific pathogen free) weighing 18±2 g were infected intravenously (i.v.) with 2×10^7 P. berghei ANKA strain-infected erythrocytes from donor mice on day 0 of the experiment. From donor mice with circa 30% parasitemia, heparinized blood was taken and diluted in physiological saline to 10^8 parasitized erythrocytes per ml. An aliquot (0.2 ml) of this suspension was injected i.v. into experimental and control groups of mice. […] Throughout the experiments, mice were kept in groups of three or five animals in Makrolon type II cages in an air-conditioned animal room at 22 to 23° C.
(§2) They were administered per os (p.o.) in a total volume of 0.01 ml per gram of mouse. The activity of the compound was determined by a variety of methods outlined in subsequent sections. Survival time was also recorded, and survival to day 30 post-infection was considered to be a cure.
The first experiment conducted consisted of administration of a divided 3×10 mg/kg p.o. dose administered on days 1, 2, and 3 post-infection vs. a single 1×30 mg/kg po dose administered on day 1 post-infection. On day 4 post-infection, blood smears of all animals were prepared and stained with Giemsa. […] Compounds were administered orally in the SSV vehicle.

[3] = test system: P. berghei ANKA strain; experiment: Divided 3x3 mg/kg and 3x1 mg/kg po doses in infected mice; assay type: in vivo, Plasmodium berghei
Procedure: as §1, §2
The second experiment consists of administration of divided 3×3 mg/kg and 3×1 mg/kg po doses administered on days 1, 2, and 3 post-infection. On day 4 post-infection, blood smears of all animals were prepared and stained with Giemsa. […] Compounds were administered orally in the SSV vehicle.

[4] = test system: chloroquine-resistant K1 strain of P. falciparum; experiment: In vitro antimalarial semiautomated microdilution assay ([3H]-hypoxanthine incorporation), K1 strain; assay type: cell-based, Plasmodium falciparum; conditions: Plasmodium falciparum, K1, 72 h, read-out: IC50 (ng/ml) K1, chloroquine-resistant K1 strain, 72 h incubation
In short: (§3)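 IC50 values come from Logit regression of [3H]-hypoxanthine uptake data. Parasites were intraerythrocytic P. falciparum forms taken from asynchronous stock cultures and tested by semiautomated microdilution.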

[5] = test system: chloroquine-sensitive NF54 strain of P. falciparum; experiment: In vitro antimalarial semiautomated microdilution assay ([3H]-hypoxanthine incorporation), NF54 strain; assay type: cell-based, Plasmodium falciparum; conditions: Plasmodium falciparum, NF54, 72 h, read-out: IC50 (ng/ml) NF54, chloroquine-sensitive NF54 strain, 72 h incubation
In short: as §3

[6] = test system: ANKA strain of Plasmodium berghei; experiment: Single dose ED50/ED90/ED99 determination in infected mice; assay type: in vivo; conditions: for ED50: Plasmodium berghei
Procedure: In the single dose ED50/ED98/ED99 determinations, Moro SPF or NMRI mice (group of three) infected with the ANKA strain of Plasmodium berghei were treated on day one post-infection. […] The SSV consists of 0.5% w/v CMC, 0.5% v/v benzyl alcohol, 0.4% v/v Tween 80, and 0.9% w/v sodium chloride in water. Antimalarial activity was measured by percent reduction in parasitemia on day three post-infection. The ED50/ED90 values were calculated by nonlinear fitting.
The ED50, ED90, and ED99 values were calculated by non-linear fitting with statistical program and were expressed in mg/kg.

[7] = test system: Schistosoma mansoni 21-day-old schistosomules; experiment: Effect on 21-day-old schistosomules in infected mice; assay type: in vivo; conditions: for % reduction of schistosomule growth at day 21 after per os application of 200 mg/kg, FWR (%): female worm reduction rate
Procedure: Mice were infected with 100 Schistosoma mansoni cercariae on day 21 post-treatment. Each group was treated per os with trioxolanes at a single dose of 200 mg/kg. […] All groups were killed 4 weeks after treatment and the liver and intestine were removed and separated. The liver and intestine were compressed and alive male and female worms could be seen and counted. The effect of the compounds was evaluated by mean total and female worm burden.

[8] = test system: Schistosoma mansoni adult worms (49-day-old); experiment: Effect on adult schistosomes (49-day-old) in infected mice; assay type: in vivo; conditions: for % reduction of adult worms growth at day 49 after per os application of 400 mg/kg, TWR (%) / Adult worms day 49, per os 400 mg/kg, DEAD WORM (%): single 400 mg/kg per os
Procedure: Mice were infected with 100 Schistosoma mansoni cercariae on day 49 post-treatment. Each group was treated per os with OZ compounds at single doses of 200, 400, and 600 mg/kg. Untreated mice served as the control. All groups were killed 4 weeks after treatment and the liver and intestine were removed and separated. The liver and intestine were compressed and alive male and female worms could be seen and counted.

[9] = percent reduction in parasitemia on day 3
[10] = po, single dose po in SSV on day 1 post-infection, parasitemia day 3, nonlinear fitting
[11] = single dose po in SSV on day 1 post-infection, parasitemia day 3, nonlinear fitting
[12] = single 200 mg/kg per os, 21-day-old schistosomules
[13] = 49-day-old adults, total worm reduction rate
[14] = percentage of dead worm in the liver

Structure (SMILES)	Survival (days) 10 mg/kg SSV po [1]	Activity (%) 10 mg/kg SSV po [1, 9]	IC50 [4]	IC50 [5]	Survival (days) 10 mg/kg po [1]	Activity (%) 10 mg/kg po [1, 9]	Survival (days) 10 mg/kg sc [1]	Activity (%) 10 mg/kg sc [1, 9]	ED50 [6, 10]	ED90 [6, 11]	ED99 [6, 11]	% reduction of schistosomule growth at day 21 after per os application of 200 mg/kg, FWR (%) [7, 12]	% reduction of adult worms growth at day 49 after per os application of 400 mg/kg, TWR (%) [8, 13]	Adult worms day 49, per os 400 mg/kg, DEAD WORM (%) [8, 14]	also measured
Cc1ccc(S(=O)(=O)O)cc1.N[C@H]1CC[C@H](NC(=O)C[C@H]2CC[C@]3(CC2)OO[C@]2(O3)C3CC4CC(C3)CC2C4)CC1 [OZ315]	11.2 days	99.97%	–	–	–	–	–	–	–	–	–	–	–	–	Survival (days) 3 mg/kg SSV po ([1]; single 3 mg/kg po in SSV): 9.6 days; Activity (%) 3 mg/kg SSV po ([1]; single 3 mg/kg po in SSV, percent reduction in parasitemia on day 3): 92%; Survival (days) 3 × 10 mg/kg p.o. SSV [2]: >30 days; Activity (%) 3 × 10 mg/kg p.o. SSV ([2]; parasitemia reduction on day 4): 100%; Survival ([3]; 3 × 1 mg/kg p.o. SSV on days 1, 2, 3 post-infection): 12.2 days; Survival ([3]; 3 × 3 mg/kg p.o. SSV on days 1, 2, 3 post-infection): 22 days; Activity (%) ([3]; 3 × 3 mg/kg p.o. SSV on days 1, 2, 3 post-infection, percent reduction of parasitemia vs control on day 4): 99.99%; Activity (%) ([3]; po, 1 mg/kg, 96 h): 81%; Cures ([3]; po, 3 mg/kg, 720 h): 0\5
CN1CCN(C(=O)C[C@H]2CC[C@]3(CC2)OOC2(O3)C3CC4CC(C3)CC2C4)CC1 (some centres unmarked) [OZ227]	9.3 days	99.90%	0.2 ng/mL (≈ 0.494 nM)	0.2 ng/mL (≈ 0.494 nM)	8.3 days	99.68%	10.7 days	99.84%	2.3 mg/kg	4.0 mg/kg	6.2 mg/kg	–	–	–	–
CC(C)(O)C[C@H]1CC[C@]2(CC1)OOC1(O2)C2CC3CC(C2)CC1C3 (some centres unmarked) [OZ205]	8.7 days	99.94%	1.5 ng/mL (≈ 4.46 nM)	2 ng/mL (≈ 5.94 nM)	10.0 days	99.96%	9.7 days	99.96%	1.6 mg/kg	3.3 mg/kg	6.0 mg/kg	83%	0%	12%	% reduction of schistosomule growth at day 21 after per os application of 200 mg/kg, TWR (%) ([7]; single 200 mg/kg per os, 21-day-old schistosomules, total worm reduction rate): 84%
O=C1CCC2(CC1)OOC1(O2)C2CC3CC(C2)CC1C3 (centres unmarked) [OZ05]	–	–	–	–	–	–	–	–	–	–	15 mg/kg	88%	23%	32%	% reduction of schistosomule growth at day 21 after per os application of 200 mg/kg, TWR (%) ([7]; po, 200 mg/kg, 504 h): 90%; % reduction of adult worms growth at day 49 after per os application of 200 mg/kg, TWR (%) ([8]; single 200 mg/kg per os, 49-day-old adults, total worm reduction rate): 46%; Adult worms day 49, per os 200 mg/kg, DEAD WORM (%) ([8]; single 200 mg/kg per os, percentage of dead worm in the liver): 12%; % reduction of adult worms growth at day 49 after per os application of 600 mg/kg, TWR (%) ([8]; single 600 mg/kg per os, 49-day-old adults, total worm reduction rate): 70%; Adult worms day 49, per os 600 mg/kg, DEAD WORM (%) ([8]; single 600 mg/kg per os, percentage of dead worm in the liver): 58%; ED90 ([6]; po): 12 mg/kg
